# Target: T1, human CRF receptor (Homo sapiens, UniProt P34998)
# T1 construct: expressed in transfected cells; host or cells: CHO cells (membrane fraction)
# T1 sequence (P34998 24-415): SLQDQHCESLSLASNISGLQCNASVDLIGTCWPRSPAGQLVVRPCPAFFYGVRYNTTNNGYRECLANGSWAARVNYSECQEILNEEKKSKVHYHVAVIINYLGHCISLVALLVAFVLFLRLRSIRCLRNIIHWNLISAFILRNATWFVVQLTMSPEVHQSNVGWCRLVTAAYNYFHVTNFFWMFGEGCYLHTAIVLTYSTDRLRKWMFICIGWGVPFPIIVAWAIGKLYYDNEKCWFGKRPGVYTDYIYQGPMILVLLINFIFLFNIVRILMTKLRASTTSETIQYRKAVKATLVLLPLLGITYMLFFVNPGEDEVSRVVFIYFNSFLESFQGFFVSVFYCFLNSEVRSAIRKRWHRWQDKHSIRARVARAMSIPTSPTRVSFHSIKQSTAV
# Assay: Measurement of Corticotropin-Releasing Factor (CRF) Binding Inhibitory Rate
# Conditions: 1000 nM test compound; human CRF receptor expressing CHO cellular membrane fraction; 50 pM 125I-CRF; room temperature 1 hour
# Procedure: Measurement of Corticotropin-Releasing Factor (CRF) Binding Inhibitory Rate
# A receptor binding experiment was carried out using a human CRF receptor expressing CHO cellular membrane fraction and sheep CRF, [^125I]-tyr^0(^125I-CRF). 1000 nM of a test compound was incubated with 1 μg of human CRF receptor expressing CHO cellular membrane fraction and 50 pM of ^125I-CRF in a binding assay buffer (50 mM Tris-HCl, 5 mM EDTA, 10 mM MgCl2, 0.05% CHAPS, 0.1% BSA, 0.5 mM PMSF, […] pepstatin, 20 μg/ml leupeptin, pH 7.5). In addition, for measuring nonspecific binding (NSB), 0.1 μM unlabelled human Urocortin was incubated with 1 μg of human CRF receptor expressing CHO cellular membrane fraction and 50 pM of ^125I-CRF in a binding assay buffer. After a binding reaction was carried out at room temperature for 1 hour, the membrane was entrapped on a glass filter (UniFilter plate GF-C/Perkin Elmer) by suction filtration using a cell harvester (Perkin Elmer), and washed with ice-cooled 50 mM Tris-HCl (pH 7.5). After drying the glass filter, a liquid scintillation cocktail (Microscinti 0, Perkin Elmer) was added, and the radioactivity of ^125I-CRF remaining on a glass filter was measured using Topcount (Perkin Elmer).
# (TB−SB)/(TB−NSB)×100 (SB: radioactivity when a compound is added, TB: maximum binding radioactivity, NSB: nonspecific binding radioactivity) was calculated to obtain a binding inhibitory rate under the presence of 1,000 nM or 100 nM of each test substances.
row,SMILES,inhibition at 1 µM
1,"CCCN(CCC)c1cccc2nc(Nc3c(C)cc(C)cc3C)n(C)c12 [Example 26, N^2-Mesityl-1-methyl-N^7,N^7-dipropyl-1H-benzimidazole-2,7-diamine]",> 80%
2,"CCCN(CCC)c1cccc2nc(Nc3c(C)cc(C)cc3Cl)n(C)c12 [Example 42, N^2-(2-chloro-4,6-dimethylphenyl)-1-methyl-N^7,N^7-dipropyl-1H-benzimidazole-2,7-diamine]",> 80%
3,"CCCN(CCC)c1cccc2nc(Nc3cc(OC)c(OC)cc3C)n(C)c12 [Example 46, N^2-(4,5-dimethoxy-2-methylphenyl)-1-methyl-N^7,N^7-dipropyl-1H-benzimidazole-2,7-diamine]",> 80%
4,"COc1ccc(N(c2cccc3nc(Nc4c(C)cc(Cl)cc4OC)n(C)c23)C(C)C)cc1 [Example 145, N^2-(4-chloro-2-methoxy-6-methylphenyl)-N^7-isopropyl-N^7-(4-methoxyphenyl)-1-methyl-1H-benzimidazole-2,7-diamine]",> 80%
5,"CCC1CCCCN1c1cccc2nc(Nc3c(C)cc(Br)cc3OC)n(C)c12 (centres unmarked) [Example 183, N-(4-Bromo-2-methoxy-6-methylphenyl)-7-(2-ethyl-1-piperidinyl)-1-methyl-1H-benzimidazol-2-amine]",> 80%
